In brackets after ≈: the same amount, converted by molar mass.
What was measured:
Format in all cases: functional
Enterococcus faecium = assay: Antibacterial activity against Enterococcus faecium ATCC 6569
Enterococcus faecalis = assay: Antibacterial activity against Enterococcus faecalis ATCC 49452
Staphylococcus aureus [1] = assay: Antibacterial activity against methicillin resistant Staphylococcus aureus ATCC 43300 (MRSA)
Staphylococcus aureus [2] = assay: Antibacterial activity against methicillin susceptible Staphylococcus aureus ATCC 29213 (MSSA )
Mus musculus = assay: Antibacterial activity was determined by protection from death of mice infected by methicillin resistant Staphylococcus aureus (MRSA) upon sc administration of compound after 4 hr of post infection; details: read-out: PD50

Which MIC (Enterococcus faecium) does the source give for `CCCCCCCCCC(=O)N[C@@H](Cc1c[nH]c2ccccc12)C(=O)N[C@H](CC(N)=O)C(=O)N[C@@H](CC(=O)O)C(=O)N[C@@H]1C(=O)NCC(=O)N[C@@H](CCCNC(=O)c2ccccc2I)C(=O)N[C@@H](CC(=O)O)C(=O)N[C@H](C)C(=O)N[C@@H](CC(=O)O)C(=O)NCC(=O)N[C@H](CO)C(=O)N[C@@H]([C@H](C)CC(=O)O)C(=O)N[C@@H](CC(=O)c2ccccc2N)C(=O)O[C@@H]1C` here?
The MIC was 3.1 µg/mL (≈ 1.68 µM).

What about the MIC (Enterococcus faecalis) of the same compound?
The MIC was 12.5 µg/mL (≈ 6.75 µM).

What about the MIC (Staphylococcus aureus [1]) of the same compound?
Its MIC is 1.56 µg/mL (≈ 0.843 µM).

What about the MIC (Staphylococcus aureus [2]) of the same compound?
The MIC was 1.56 µg/mL (≈ 0.843 µM).

`CCCCCCCCCC(=O)N[C@@H](Cc1c[nH]c2ccccc12)C(=O)N[C@H](CC(N)=O)C(=O)N[C@@H](CC(=O)O)C(=O)N[C@@H]1C(=O)NCC(=O)N[C@@H](CCCNC(=O)c2ccccc2SC)C(=O)N[C@@H](CC(=O)O)C(=O)N[C@H](C)C(=O)N[C@@H](CC(=O)O)C(=O)NCC(=O)N[C@H](CO)C(=O)N[C@@H]([C@H](C)CC(=O)O)C(=O)N[C@@H](CC(=O)c2ccccc2N)C(=O)O[C@@H]1C` was tested. Which MIC (Enterococcus faecium) did it give?
Its MIC is 6.25 µg/mL (≈ 3.53 µM).

And the MIC (Enterococcus faecalis)?
Its MIC is 25 µg/mL (≈ 14.1 µM).

And the MIC (Staphylococcus aureus [1])?
The MIC was 1.56 µg/mL (≈ 0.881 µM).

And the MIC (Staphylococcus aureus [2])?
The MIC was 3.1 µg/mL (≈ 1.75 µM).

How did the MIC (Enterococcus faecium) turn out when `CCCCCCCCCC(=O)N[C@@H](Cc1c[nH]c2ccccc12)C(=O)N[C@H](CC(N)=O)C(=O)N[C@@H](CC(=O)O)C(=O)N[C@@H]1C(=O)NCC(=O)N[C@@H](CCCNC(=O)c2ccccc2OC)C(=O)N[C@@H](CC(=O)O)C(=O)N[C@H](C)C(=O)N[C@@H](CC(=O)O)C(=O)NCC(=O)N[C@H](CO)C(=O)N[C@@H]([C@H](C)CC(=O)O)C(=O)N[C@@H](CC(=O)c2ccccc2N)C(=O)O[C@@H]1C` was run?
Its MIC is 6.25 µg/mL (≈ 3.56 µM).

And the MIC (Enterococcus faecalis)?
Its MIC is 25 µg/mL (≈ 14.2 µM).

What about the MIC (Staphylococcus aureus [1]) of the same compound?
Its MIC is 3.1 µg/mL (≈ 1.77 µM).

And the MIC (Staphylococcus aureus [2])?
The MIC was 1.25 µg/mL (≈ 0.712 µM).

For `CCCCCCCCCC(=O)N[C@@H](Cc1c[nH]c2ccccc12)C(=O)N[C@H](CC(N)=O)C(=O)N[C@@H](CC(=O)O)C(=O)N[C@@H]1C(=O)NCC(=O)N[C@@H](CCCNC(=O)c2cc(O)ccc2N)C(=O)N[C@@H](CC(=O)O)C(=O)N[C@H](C)C(=O)N[C@@H](CC(=O)O)C(=O)NCC(=O)N[C@H](CO)C(=O)N[C@@H]([C@H](C)CC(=O)O)C(=O)N[C@@H](CC(=O)c2ccccc2N)C(=O)O[C@@H]1C`, which MIC (Enterococcus faecium) is on record?
Its MIC is 10 µg/mL (≈ 5.7 µM).

And the MIC (Enterococcus faecalis)?
Its MIC is 10 µg/mL (≈ 5.7 µM).

What about the MIC (Staphylococcus aureus [2]) of the same compound?
The MIC was 1.25 µg/mL (≈ 0.712 µM).

For `CCCCCCCCCC(=O)N[C@@H](Cc1c[nH]c2ccccc12)C(=O)N[C@H](CC(N)=O)C(=O)N[C@@H](CC(=O)O)C(=O)N[C@@H]1C(=O)NCC(=O)N[C@@H](CCCNC(=O)c2cc(OC)ccc2N)C(=O)N[C@@H](CC(=O)O)C(=O)N[C@H](C)C(=O)N[C@@H](CC(=O)O)C(=O)NCC(=O)N[C@H](CO)C(=O)N[C@@H]([C@H](C)CC(=O)O)C(=O)N[C@@H](CC(=O)c2ccccc2N)C(=O)O[C@@H]1C`, which MIC (Enterococcus faecium) is on record?
Its MIC is 10 µg/mL (≈ 5.65 µM).

And the MIC (Enterococcus faecalis)?
Its MIC is 10 µg/mL (≈ 5.65 µM).

And the MIC (Staphylococcus aureus [2])?
Its MIC is 2.5 µg/mL (≈ 1.41 µM).

With `CCCCCCCCCC(=O)N[C@@H](Cc1c[nH]c2ccccc12)C(=O)N[C@H](CC(N)=O)C(=O)N[C@@H](CC(=O)O)C(=O)N[C@@H]1C(=O)NCC(=O)N[C@@H](CCCNC(=O)[C@@H](N)CCCCN)C(=O)N[C@@H](CC(=O)O)C(=O)N[C@H](C)C(=O)N[C@@H](CC(=O)O)C(=O)NCC(=O)N[C@H](CO)C(=O)N[C@@H]([C@H](C)CC(=O)O)C(=O)N[C@@H](CC(=O)c2ccccc2N)C(=O)O[C@@H]1C` as the compound, how does the MIC (Enterococcus faecalis) read?
The MIC was 6.25 µg/mL (≈ 3.57 µM).

What about the ED50 (Mus musculus) of the same compound?
The ED50 was 1.1 mg/kg.

What about the MIC (Staphylococcus aureus [1]) of the same compound?
The MIC was 0.78 µg/mL (≈ 0.446 µM).

What about the MIC (Staphylococcus aureus [2]) of the same compound?
Its MIC is 1.56 µg/mL (≈ 0.892 µM).

For `CCCCCCCCCC(=O)N[C@@H](Cc1c[nH]c2ccccc12)C(=O)N[C@H](CC(N)=O)C(=O)N[C@@H](CCO)C(=O)N[C@@H]1C(=O)NCC(=O)N[C@@H](CCCNC(=O)c2c(N)cccc2F)C(=O)N[C@@H](CC(=O)O)C(=O)N[C@H](C)C(=O)N[C@@H](CC(=O)O)C(=O)NCC(=O)N[C@H](CO)C(=O)N[C@@H]([C@H](C)CC(=O)O)C(=O)N[C@@H](CC(=O)c2ccccc2N)C(=O)O[C@@H]1C`, which MIC (Enterococcus faecium) is on record?
Its MIC is 3.1 µg/mL (≈ 1.78 µM).

And the MIC (Enterococcus faecalis)?
Its MIC is 3.1 µg/mL (≈ 1.78 µM).

And the MIC (Staphylococcus aureus [1])?
Its MIC is 0.78 µg/mL (≈ 0.447 µM).

What about the MIC (Staphylococcus aureus [2]) of the same compound?
Its MIC is 0.78 µg/mL (≈ 0.447 µM).

Which results are given for `CCCCCCCCCC(=O)N[C@@H](Cc1c[nH]c2ccccc12)C(=O)N[C@H](CC(N)=O)C(=O)N[C@@H](CC(=O)O)C(=O)N[C@@H]1C(=O)NCC(=O)N[C@@H](CCCNC(=O)C2Cc3c([nH]c4ccccc34)CN2)C(=O)N[C@@H](CC(=O)O)C(=O)N[C@H](C)C(=O)N[C@@H](CC(=O)O)C(=O)NCC(=O)N[C@H](CO)C(=O)N[C@@H]([C@H](C)CC(=O)O)C(=O)N[C@@H](CC(=O)c2ccccc2N)C(=O)O[C@@H]1C` (stereo not given in full)?
MIC (Enterococcus faecium): 3.1 µg/mL (≈ 1.7 µM); MIC (Enterococcus faecalis): 12.5 µg/mL (≈ 6.87 µM); ED50 (Mus musculus): 1.75 mg/kg; MIC (Staphylococcus aureus [1]): 0.78 µg/mL (≈ 0.429 µM); MIC (Staphylococcus aureus [2]): 0.78 µg/mL (≈ 0.429 µM)

What does the source list for `CCCCCCCCCC(=O)N[C@@H](Cc1c[nH]c2ccccc12)C(=O)N[C@H](CC(N)=O)C(=O)N[C@@H](CCO)C(=O)N[C@@H]1C(=O)NCC(=O)N[C@@H](CCCNC(=O)c2ccccc2)C(=O)N[C@@H](CC(=O)O)C(=O)N[C@H](C)C(=O)N[C@@H](CC(=O)O)C(=O)NCC(=O)N[C@H](CO)C(=O)N[C@@H]([C@H](C)CC(=O)O)C(=O)N[C@@H](CC(=O)c2ccccc2N)C(=O)O[C@@H]1C`?
MIC (Enterococcus faecium): 25 µg/mL (≈ 14.6 µM); MIC (Enterococcus faecalis): 25 µg/mL (≈ 14.6 µM); MIC (Staphylococcus aureus [1]): 12.5 µg/mL (≈ 7.31 µM); MIC (Staphylococcus aureus [2]): 6.25 µg/mL (≈ 3.65 µM)

With `CCCCCCCCCC(=O)N[C@@H](Cc1c[nH]c2ccccc12)C(=O)N[C@H](CC(N)=O)C(=O)N[C@@H](CC(=O)O)C(=O)N[C@@H]1C(=O)NCC(=O)N[C@@H](CCCNC(=O)C(N)CCc2c[nH]c3ccccc23)C(=O)N[C@@H](CC(=O)O)C(=O)N[C@H](C)C(=O)N[C@@H](CC(=O)O)C(=O)NCC(=O)N[C@H](CO)C(=O)N[C@@H]([C@H](C)CC(=O)O)C(=O)N[C@@H](CC(=O)c2ccccc2N)C(=O)O[C@@H]1C` (stereo not given in full) as the compound, how does the MIC (Enterococcus faecium) read?
The MIC was 1.56 µg/mL (≈ 0.857 µM).

What about the MIC (Enterococcus faecalis) of the same compound?
Its MIC is 3.1 µg/mL (≈ 1.7 µM).

What about the ED50 (Mus musculus) of the same compound?
Its ED50 is 0.15 mg/kg.

What about the MIC (Staphylococcus aureus [1]) of the same compound?
The MIC was 0.78 µg/mL (≈ 0.428 µM).

What about the MIC (Staphylococcus aureus [2]) of the same compound?
The MIC was 0.78 µg/mL (≈ 0.428 µM).
